Experimental data from patent publication US6794124B2, “Preservation solution” (Stiftelsen Facthor, priority 1995, dated 2004).

Assays:
[1] = test system: smooth muscular cells and endothelial cells from blood vessels; assay: morphology of blood vessel cells after long storage with or without calcium (FIG. 2)
Text: The vascular endothelium contains hydrocarbon chains which are bound to proteins in the cell membranes, and these constitute a so-called layer of glycocalyx. This is a thin layer of a mucous substance (composed of sugars) which is considered to enclose the cell membranes and which is important to the properties of immunity of the cell and makes the cell wall permeable. These hydrocarbon chains are bound together by, among other things, calcium. If the vascular endothelial cells are subjected to calcium-free solutions for a long time, a disintegration of the important layer of glycocalyx is assumed to take place, and the function of the endothelium thus cannot be perfect. Evidence of these discoveries has been obtained through electron microscope studies of cell membranes in blood vessels that have been stored in preservation solutions with and without calcium.
The pictures show, on the one hand, smooth muscular cells from blood vessels and, on the other hand, endothelial cells from blood vessels that have been stored for a long time with or without calcium. In the case of preservation without calcium (a: smooth muscular cell and c: endothelial cell), there appears an enormous swelling of the nuclei and the cytoplasm in both types of cells.

blood vessels = assay: short-term and long-term preservation of blood vessels

Molecule | cell morphology after long storage [1] | time for which smooth muscle function in blood vessels is preserved (blood vessels; long-term preservation) | toxicity to the vascular endothelium / endothelial function (blood vessels)
[Ca+2] [calcium] | normal structures of the cells | up to 36 hours | –
heparin [reference compound] | – | – | not toxic to the endothelial function
